This note sets out measurements from patent US4443460A, “2-[4-(Diphenylmethylene)-1-piperidinyl]-acetic acids and their amides” (UCB, Societe Anonyme, priority 1980, dated 1984).

Structures can show the parent of a compound that is named as a salt. Bounds are passed on as bounds.

Data set [1] has as its system mice. Kind of data set: General behaviour of mice (Irwin's test), tranquilization. In kind it is in vivo. The settings on record: male mice, intraperitoneal. On the procedure: The behaviour is studied by means of Irwin's test (see S. Irwin, "General philosophy and methodology of screening: a multidimensional approach"; Gordon Research Conference on Medicinal Chemistry, Aug. 3-7, 1959, at Colby Junior College, New London).
(§1) Progressive doses of the test compounds are administered intraperitoneally to groups of three male mice (body weight 18 to 22 g) and the general behaviour of the animals is observed according to known criteria. The reference compounds used are the following:
The following Table gives the doses (in mg/kg) which induce the first manifestations of tranquilization in the animals: […]

The test system of data set [2] is passive cutaneous anaphylaxis. Kind of data set: passive cutaneous anaphylaxis test (PCA), antiallergic activity. Format: in vivo. The note with it: rats; for ED50: Rattus norvegicus, 0.25 h, read-out: ID 50 per os (reduction of 50% of the surface area of the colored spot). Here is the method:
This activity is determined in rats by means of the passive cutaneous anaphylaxis test (PCA) (see J. Goose and A. M. J. N. Blair, Immunology,16,(1969),749-760; and U. Martin and D. Roemer, Arzneimittel-Forschung,28,(5), (1978),770-782).
Female rats are used, the sides of which have been partly shaved. Into the zone thus shaved there is injected intradermally, for passive sensitization of the animals, 0.05 ml of IGE antiovalbumin serum at a dilution such that, at the time of the PCA test, a distinct spot with a surface area of about 100 mm^2 appears at the point of injection.
72 Hours after the injection, 0.25 ml of a solution of allergen containing a coloring agent (5 mg of ovalbumin and 6 mg Evans Blue in 0.25 ml of a 0.9% aqueous solution of sodium chloride) is administered intravenously. At the point of intradermal injection, there appears a distinct blue spot, the surface of which is measured.
In order to test the activity of the compound according to the present invention, the procedure is carried out in the same manner; however:
the test compound is administered orally 72 hours after injection of the serum;
15 minutes after this administration, 0.25 ml of the solution of the allergen is injected intravenously;
30 minutes after the administration of the allergen, the surface of the blue spot is measured.
The following Table gives the immunological doses (ID 50 in μmol/kg) which bring about, on average of the total number of animals submitted to the test, a reduction of 50% of the surface area of the colored spot.

Data set [3] has as its system mice. The settings on record: mouse, in vivo, ip. Here is the method: as §1
Furthermore, in this test, the toxicity of the compounds according to the present invention appears to be very low. This toxicity, determined by intraperitoneal administration in mice (dose which brings about the death of two animals out of three), is given in the following Table: […]

In data set [4] the test system is bronchospasms induced by acetylcholine. As to the kind of experiment: Konzett-Roessler bronchospasm test, acetylcholine-induced. The note with it: Cavia porcellus, iv, guinea pigs, i.v., read-out: dose which inhibits 50% of the induced bronchospasms, Acetylcholine. In kind it is in vivo. Here is the method:
(§2) These activities were measured in guinea pigs by the method of H. Konzett and R. […] Anaesthetized and curarized guinea pigs are subjected to artificial ventilation. The endotracheal pressure is recorded. Repeated bronchial spasms are induced by successive and progressive intravenous injections of respectively acetylcholine, histamine and serotonin. The test compounds are also administered intravenously.

Data set [5] deals with bronchospasms induced by serotonin. Kind of data set: Konzett-Roessler bronchospasm test, serotonin-induced. The settings on record: Cavia porcellus, iv, guinea pigs, i.v., read-out: dose which inhibits 50% of the induced bronchospasms, Serotonin. Format: in vivo. Here is the method: as §2
Data set [6] concerns bronchospasms induced by histamine. As to the kind of experiment: Konzett-Roessler bronchospasm test, histamine-induced (antihistaminic activity). In kind it is in vivo. The note with it: Cavia porcellus, iv; guinea pigs, i.v., histamine-induced; read-out: dose which inhibits 50% of the induced bronchospasms, Histamine. Here is the method:
as §2

For data set [7], the system named is respiratory spasm induced by pilocarpine. As to the kind of experiment: pilocarpine dog test, broncholytic activity. The settings on record: dogs, i.v., 3200 μg/kg. In kind it is in vivo. Here is the method:
Anaesthetized and curarized dogs are subjected to artificial ventilation. The endotracheal pressure is recorded. A constant respiratory spasm is induced by the continuous intravenous perfusion of pilocarpine. The test substances are also administered intravenously.

Setting [8] is: oral, allergen i.v. 15 minutes after administration.

Consider `OCCOCCN1CCN(C(c2ccccc2)c2ccc(Cl)cc2)CC1` (stereo not drawn) [Hydroxyzine, 1-(p-chloro-alpha-phenylbenzyl)-4-(2-hydroxyethoxyethyl)piperazine, reference compound], for which the “"Tranquilizing" dose (first manifestations of tranquilization)” value (shortened to “"Tranquilizing" dose”) with mice [1] was determined as 27 mg/kg.

As to `O=C1Nc2ccc(Cl)cc2C(c2ccccc2)=NC1O` (stereo not shown) [Oxazepam, 7-chloro-1,3-dihydro-3-hydroxy-5-phenyl-2H-1,4-benzodiazepin-2-one, reference compound], the “"Tranquilizing" dose” value in the data set with mice [1] was determined as 2.6 mg/kg.

For `Cl.O=C(O)COCCN1CCC(=C(c2ccccc2)c2ccccc2)CC1` [compound B, 2-[2-[4-(diphenylmethylene)-1-piperidinyl]ethoxy]-acetic acid hydrochloride], the ED50 is 39 µmol/kg in data set [2] (setting [8]), more than 82.5 mg/kg in data set [4], 0.206 mg/kg in data set [5] and 0.037 mg/kg in data set [6]. The “Toxicity (dose which brings about the death of two animals out of three)” value (“Toxicity” below) in the data set on mice [3] is 233 mg/kg. Further, in the data set on mice [1], the “"Tranquilizing" dose” value worked out at 105 mg/kg.

Take `Cl.NC(=O)COCCOCCN1CCC(=C(c2ccccc2)c2ccccc2)CC1` [compound C, 2-[2-[2-[4-(diphenylmethylene)-1-piperidinyl]ethoxy]ethoxy]-acetamide hydrochloride]: the ED50 in data set [2] (setting [8]) was found to be 76 µmol/kg; in data set [4] it was 0.47 mg/kg; in data set [5] it was 0.009 mg/kg; in data set [6], 0.031 mg/kg. Besides, the “Toxicity” value in the data set on mice [3] was determined as 258 mg/kg.

With `Cl.NC(=O)COCCN1CCC(=C(c2ccccc2)c2ccc(Cl)cc2)CC1` [compound D, 2-[2-[4-[(4-chlorophenyl)phenylmethylene]-1-piperidinyl]ethoxy]-acetamide hydrochloride], in data set [2] (setting [8]), the ED50 was found to be 67.4 µmol/kg. Also, the “Toxicity” value with mice [3] was determined as 126 mg/kg.

In the case of `NC(=O)COCCOCCN1CCC(=C(c2ccccc2)c2ccc(Cl)cc2)CC1` [compound E, 2-[2-[2-[4-[(4-chlorophenyl)phenylmethylene]-1-piperidinyl]ethoxy]ethoxy]-acetamide], the ED50 in data set [2] (setting [8]) is 34 µmol/kg; in data set [4], more than 4.29 mg/kg; in data set [5], 0.085 mg/kg; in data set [6], 0.348 mg/kg. For the same molecule, the “Toxicity” value with mice [3] is 128 mg/kg.

Turning to `NC(=O)COCCN1CCC(=C(c2ccccc2)c2ccccc2Cl)CC1` [compound F, 2-[2-[4-[(2-chlorophenyl)phenylmethylene-1-piperidinyl]ethoxy]-acetamide hydrochloride], the ED50 was 66 µmol/kg in data set [2] (setting [8]), more than 1.35 mg/kg in data set [4], 0.055 mg/kg in data set [5] and 0.551 mg/kg in data set [6]. The “Toxicity” value in the data set on mice [3] worked out at 421 mg/kg. Also, the “"Tranquilizing" dose” value in the data set on mice [1] is recorded as “no sedative effect at all”.

Regarding `NC(=O)COCCN1CCC(=C(c2ccccc2)c2ccc(F)cc2)CC1` [compound G, 2-[2-[4-[(4-fluorophenyl)phenylmethylene]-1-piperidinyl]ethoxy]-acetamide], the ED50 in data set [2] (setting [8]) was 5.5 µmol/kg; in data set [4], more than 11.8 mg/kg; in data set [5] it was 0.023 mg/kg; in data set [6], 0.093 mg/kg. In addition, in the data set on mice [3], the “Toxicity” value came to 368 mg/kg.

Consider `COc1ccc(C(=C2CCN(CCOCC(N)=O)CC2)c2ccccc2)cc1.Cl` [compound H, 2-[2-[4-[(4-methoxyphenyl)phenylmethylene]-1-piperidinyl]ethoxy]-acetamide hydrochloride], for which the ED50 is 31.4 µmol/kg in data set [2] (setting [8]), more than 41.6 mg/kg in data set [4], 0.18 mg/kg in data set [5] and 0.026 mg/kg in data set [6]. Also, the “Toxicity” value in the data set with mice [3] is recorded as 416 mg/kg.

Consider `Cl.O=C(O)COCCN1CCC(=C(c2ccccc2)c2ccc(Cl)cc2)CC1` [compound I, 2-[2-[4-[(4-chlorophenyl)phenylmethylene]-1-piperidinyl]ethoxy]-acetic acid hydrochloride], for which the ED50 was 100 µmol/kg in data set [2] (setting [8]), 13.5 mg/kg in data set [4], 1.18 mg/kg in data set [5] and 0.413 mg/kg in data set [6]. Besides, the “Toxicity” value with mice [3] stood at 844 mg/kg. Moreover, in the data set on mice [1], the “"Tranquilizing" dose” value was 76 mg/kg.

As to `Cl.O=C(O)COCCOCCN1CCC(=C(c2ccccc2)c2ccc(Cl)cc2)CC1` [compound J, 2-[2-[2-[4-[(4-chlorophenyl)phenylmethylene]-1-piperidinyl]ethoxy]ethoxy]-acetic acid hydrochloride], the ED50 in data set [2] (setting [8]) is 100 µmol/kg; in data set [4], more than 46.6 mg/kg; in data set [5], 0.796 mg/kg; in data set [6], 0.283 mg/kg. Besides, the “Toxicity” value in the data set with mice [3] is reported as 140 mg/kg. For the same molecule, the “"Tranquilizing" dose” value in the data set on mice [1] is 47 mg/kg.

In the case of `Cl.O=C(O)COCCN1CCC(=C(c2ccccc2)c2ccccc2Cl)CC1` [compound K, 2-[2-[4-[(2-chlorophenyl)phenylmethylene]-1-piperidinyl]ethoxy]-acetic acid hydrochloride], the ED50 in data set [2] (setting [8]) turned out to be 100 µmol/kg; in data set [4] it was 39.5 mg/kg; in data set [5], 0.43 mg/kg; in data set [6] it was 0.104 mg/kg. In addition, the “Toxicity” value in the data set on mice [3] amounted to 422 mg/kg. Also, in the data set with mice [1], the “"Tranquilizing" dose” value is on record as 126 mg/kg.

`O=C(O)COCCN1CCC(=C(c2ccccc2)c2ccc(F)cc2)CC1` [compound L, 2-[2-[4-[(4-fluorophenyl)phenylmethylene]-1-piperidinyl]ethoxy]-acetic acid]: the ED50 is 34 µmol/kg in data set [2] (setting [8]), more than 11.8 mg/kg in data set [4], 0.198 mg/kg in data set [5] and 0.058 mg/kg in data set [6]. In addition, the “Toxicity” value in the data set with mice [3] was found to be 369 mg/kg. Moreover, the “"Tranquilizing" dose” value in the data set on mice [1] is given as 110 mg/kg.

As for `COc1ccc(C(=C2CCN(CCOCC(=O)O)CC2)c2ccccc2)cc1.Cl` [compound M, 2-[2-[4-[(4-methoxyphenyl)phenylmethylene]-1-piperidinyl]ethoxy]-acetic acid hydrochloride], the ED50 was 208 µmol/kg in data set [2] (setting [8]), more than 41.8 mg/kg in data set [4], 0.893 mg/kg in data set [5] and 0.181 mg/kg in data set [6]. Further, the “Toxicity” value in the data set on mice [3] was found to be 418 mg/kg. The “"Tranquilizing" dose” value in the data set on mice [1] came out at 125 mg/kg.

Regarding `Cl.O=C(COCCOCCN1CCC(=C(c2ccccc2)c2ccccc2)CC1)Nc1ccccc1` [compound N, 2-[2-[2-[4-(diphenylmethylene)-1-piperidinyl]ethoxy]ethoxy]-N-phenylacetamide hydrochloride], the ED50 in data set [2] (setting [8]) worked out at 15.2 µmol/kg; in data set [4] it was 1.35 mg/kg; in data set [5] it was 0.086 mg/kg; in data set [6], 0.192 mg/kg.

On to `O=C(O)c1cc(=O)c2c(OCC(O)COc3cccc4oc(C(=O)O)cc(=O)c34)cccc2o1` [sodium cromoglycate, reference compound], for which, in data set [2] (setting [8]), the “ID 50 per os (reduction of 50% of the surface area of the colored spot)” value was “inactive”. Further, the “activity when administered per os (in words)” value in data set [2] (per os) was “inactive”.

For `Cn1c(=O)c2[nH]cnc2n(C)c1=O` [theophylline, reference compound], the “reduction of the intensity of the induced spasm” value in data set [7] worked out at 35%.
